From ChEMBL document CHEMBL3611980, “Design, synthesis of benzocoumarin-pyrimidine hybrids as novel class of antitubercular agents, their DNA cleavage and X-ray studies” (Eur J Med Chem, 2015)
In brackets after ≈: the same amount, converted by molar mass. Activity calls are given as the source filed them. The rule behind the calls is not given here.

What was measured:
[1] = system: Mycobacterium tuberculosis; test: Antitubercular activity against Mycobacterium tuberculosis H37Rv ATCC 27294 at 6.25 ug/ml after 5 days by microplate Alamar Blue assay; format: functional; details: H37Rv ATCC 27294, 120 h
[2] = Cytotoxicity against African green monkey Vero cells assessed as cell survival at 10 times MIC after 72 hrs by MTT assay; format: cell-based; details: chlorocebus sabaeus, read-out: Survival
[3] = system: Mycobacterium tuberculosis; test: Antitubercular activity against Mycobacterium tuberculosis H37Rv ATCC 27294 after 5 days by microplate Alamar Blue assay; format: functional; details: H37Rv ATCC 27294, 120 h
Bos taurus = species: Bos taurus; test: Induction of DNA cleavage in calf thymus DNA at 10 ug after 2 hrs by agarose gel electrophoresis method

SMILES | inhibition at 6.25 µg/mL [1] | viability at 72 h, 10 times MIC [2] | MIC [3] | Activity (Bos taurus)
Cc1ccccc1-c1cc(-c2cc3c(ccc4ccccc43)oc2=O)nc(Cc2ccc(F)cc2)n1 | 73% |  |  | 
O=c1oc2ccc3ccccc3c2cc1-c1cc(-c2cccc(Cl)c2)nc(Cc2ccc(F)cc2)n1 | 93% | 75% | 1.56 µg/mL (≈ 3.16 µM) | Active
COc1ccccc1-c1cc(-c2cc3c(ccc4ccccc43)oc2=O)nc(Cc2ccc(F)cc2)n1 | 98% | 91% | 0.78 µg/mL (≈ 1.6 µM) | 
O=c1oc2ccc3ccccc3c2cc1-c1cc(-c2ccc(Br)cc2)nc(Cc2ccc(F)cc2)n1 | 96% | 72% | 1.56 µg/mL (≈ 2.9 µM) | Active
O=c1oc2ccc3ccccc3c2cc1-c1cc(-c2ccccc2Br)nc(Cc2ccc(F)cc2)n1 | 77% |  |  | 
NNC(=O)c1ccncc1 [ISONIAZID] | 100% | 100% | 0.02 µg/mL (≈ 0.146 µM) | 
Cc1ccc(-c2cc(-c3cc4c(ccc5ccccc54)oc3=O)nc(Cc3ccc(F)cc3)n2)cc1 | 81% |  |  | 
O=c1oc2ccc3ccccc3c2cc1-c1cc(-c2cccc(Br)c2)nc(Cc2ccc(F)cc2)n1 | 93% | 64% | 2.81 µg/mL (≈ 5.23 µM) | 
O=c1oc2ccc3ccccc3c2cc1-c1cc(-c2ccc([N+](=O)[O-])cc2)nc(Cc2ccc(F)cc2)n1 | 95% | 39% | 2.81 µg/mL (≈ 5.58 µM) | 
O=c1oc2ccc3ccccc3c2cc1-c1cc(-c2ccccc2[N+](=O)[O-])nc(Cc2ccc(F)cc2)n1 | 90% | 17% | 6.25 µg/mL (≈ 12.4 µM) | 
Cc1cccc(-c2cc(-c3cc4c(ccc5ccccc54)oc3=O)nc(Cc3ccc(F)cc3)n2)c1 | 76% |  |  | 
COc1cccc(-c2cc(-c3cc4c(ccc5ccccc54)oc3=O)nc(Cc3ccc(F)cc3)n2)c1 | 100% | 93% | 0.19 µg/mL (≈ 0.389 µM) | 
O=c1oc2ccc3ccccc3c2cc1-c1cc(-c2cccc([N+](=O)[O-])c2)nc(Cc2ccc(F)cc2)n1 | 91% | 26% | 3.12 µg/mL (≈ 6.2 µM) | Active
O=c1oc2ccc3ccccc3c2cc1-c1cc(-c2ccccc2Cl)nc(Cc2ccc(F)cc2)n1 | 75% |  |  | 
O=c1oc2ccc3ccccc3c2cc1-c1cc(-c2ccc(Cl)cc2)nc(Cc2ccc(F)cc2)n1 | 96% | 79% | 1.21 µg/mL (≈ 2.45 µM) | 
COc1ccc(-c2cc(-c3cc4c(ccc5ccccc54)oc3=O)nc(Cc3ccc(F)cc3)n2)cc1 | 100% | 97% | 0.05 µg/mL (≈ 0.102 µM) | Active
